Article PMC11050087, “Polyphenols from Maackia amurensis Heartwood Protect Neuronal Cells from Oxidative Stress and Prevent Herpetic Infection” (International Journal of Molecular Sciences, 2024)
Several values for one entry are separate records, joined by “and”; a condition that tells them apart may be missing. Equal values may be shown once.

Legend:
[1] = tested on: 6-OHDA-treated Neuro-2a cells; experiment: ROS analysis in 6-OHDA-treated cells (H2DCF-DA); type: cell-based, murine; details: 6-OHDA 120 µM; for reduction of ROS levels in 6-OHDA-treated Neuro-2a cells: compound 1 µM
Method: We studied the effect of polyphenolic compounds set on ROS levels in 6-OHDA-treated Neuro-2a cells (Figure 5a–d).
(§1) Figure 5 The effect of polyphenolic compounds isolated from M. amurensis heartwood on ROS levels in Neuro-2a cells treated with 6-OHDA (120 μM) (a–d). Polyphenolic compounds isolated from M. amurensis heartwood were used at concentrations 10, 1, 0.1 μM. The data are presented as means ± SEM of three independent replicates.
After 24 h of adhesion, Neuro-2a cells (5 × 10^4 cells/mL) were incubated with polyphenolic compounds at concentrations of 0.1, 1, and 10 µM for 1 h. Then, 120 µM of 6-OHDA or 1 mM of PQ were added to each well, and cells were incubated for 1 h. To study the ROS formation, 20 µL of 2,7-dichlorodihydrofluorescein diacetate solution (H2DCF-DA, Sigma-Aldrich, St. Louis, MO, USA) were added to each well, so that the final concentration was 10 µM. Then, the microplate was incubated for 30 min at 37 °C.

[2] = tested on: 6-OHDA-treated Neuro-2a cells; experiment: Mitochondrial membrane potential detection (TMRM) in 6-OHDA-treated cells; type: cell-based, murine; details: compound 10 µM; 6-OHDA 120 µM; TMRM
Method: We determined the effect of polyphenolic compounds from M. amurensis on 6-OHDA-induced mitochondrial dysfunction in Neuro-2a cells (Figure 6a,b).
as §1, with “6” for “5”, “mitochondrial membrane potential” for “ROS levels”, “(a,b).” for “(a–d).”, “replicates. (*) and (***) indicate, respectively, p < 0.05 and p < 0.001 versus 6-OHDA-treated cells.” for “replicates.”
The cells were incubated for 1 h in a 96-well plate (1 × 10^4 cells/well) with polyphenolic compounds (0.1, 1 and 10 µM). Then, 6-OHDA (120 µM) was added, and cell suspension was incubated for 1 h. Cells incubated without 6-OHDA and compounds and with 6-OHDA alone were used as positive and negative control, respectively. The tetramethylrhodamine methyl (TMRM) (Sigma-Aldrich, St. Louis, MO, USA) solution (500 nM) was added to each well and cells were incubated for 30 min at 37 °C. The intensity of fluorescence was measured using a PHERAstar FSplate reader (BMG Labtech, Ortenberg, Germany) at λex = 540 nm and λem = 590 nm. The data were processed by MARS Data Analysis v. 3.01R2 (BMG Labtech, Ortenberg, Germany).

HSV-1 = experiment: Virucidal activity, CPE inhibition assay (HSV-1 pretreated with compounds); type: cell-based, HSV-1 strain L2; details: for IC50: Human alphaherpesvirus 1, virus pretreated with compound (virucidal), Vero cells, 100 TCID50/mL; for SI: ratio of CC50 to IC50, virucidal scheme

SMILES | reduction of ROS levels in 6-OHDA-treated Neuro-2a cells [1] | increase of mitochondrial membrane potential [2] | IC50 (HSV-1; CPE assay) | SI (HSV-1) | effect on ROS levels in 6-OHDA-treated Neuro-2a cells (in words) ([1]; compounds at 10, 1, 0.1 µM) | virucidal activity against HSV-1 (in words) (HSV-1; CPE assay, virus pretreated with compound)
Oc1ccc(/C=C/c2cc(O)cc(O)c2)cc1 [Compound 1, resveratrol] | approximately 15% | 8–12% | 9.6 µg/mL and 42.1 µM | 12.8 ± 1.9 | – | –
O=C1C[C@@H](c2ccc(O)cc2)Oc2cc(O)ccc21 [Compound 6, liquiritigenin] | 15% | 8–12% | – | – | dose-dependent effect | did not show virucidal activity
Oc1cc(O)cc(/C=C/c2ccc3c(c2)O[C@H](c2cc(O)cc(O)c2)[C@@H](c2ccc(O)c(O)c2)O3)c1 [Compound 9, maackin] | – | 8–12% | 2.4 µg/mL and 4.9 µM | 112.3 and 112.3 ± 13.5 | – | –
Oc1ccc(/C=C/c2cc(O)cc3c2[C@H](c2cc(O)cc(O)c2)[C@@H](c2ccc(O)c(O)c2)O3)cc1 [Compound 13, scirpusin A] | 43% | – | 2.6 µg/mL and 5.5 µM | – | – | –
